The record followed here is patent US20130252886A1, “METHODS OF DELAYING AND TREATING DIABETES” (priority 2010, published 2013).

Common to all, as to format: in vivo
Experiment [1] has as its system Female NOD mice (NOD/ShiLtJ, Taconic). Description: Insulin requirement and blood glucose in diabetic NOD mice, GABA vs lysine controls (Example 6). The following applies: range over the 9 week study period; GABA 60 or 90 mg/kg or lysine 8 mg/kg PO BID before insulin. On the procedure: Female NOD mice (NOD/ShiLtJ, Taconic) were housed in accordance with NIH Animal Use and Welfare guidelines with 12 hour light-dark cycle beginning at 9 weeks of age. The animals were fed a standard rodent diet ad lib. Blood glucose was measured weekly using a Freestyle glucometer, and then twice daily once it was determined they had diabetes.
Mice were considered diabetic if a single non-fasting blood glucose measurement was […]. For about eight weeks before the mice became diabetic, their average fasting blood glucose was 102 mg/dl. Once diabetic, blood glucose levels were measured twice daily, approximately eight hours apart. All of the mice received insulin subcutaneously twice daily and the dosage was adjusted as needed. Three diabetic mice were randomly designated as controls and were given the amino acid lysine (8 mg/kg) orally (PO) twice a day before the administration of insulin.

The nature of experiment [2]: Average body weight / lean body mass of NOD mice. The following applies: 30 mg/kg GABA and/or 0.4 U insulin groups, FIGS. 3 and 4. The text has this: FIGS. 3 and 4 show the average weight for the NOD mice in each group during the course of the experiment. The x-axis (age of mouse in weeks) corresponds to both the delayed onset and treatment regimens, depending on when the diagnosis of diabetes was made.

A further experiment relates to female NOD mice. Description: Diabetes prevention/delayed onset study, fasting blood glucose. From the text: Normally, ninety to one hundred percent of female NOD mice, available, for example, from Jackson Laboratory, develop diabetes by 30 weeks of age. Two treatments were designed to study delaying the onset of diabetes and diabetes intervention in NOD mice. The first examined therapies in NOD mice beginning at 8 weeks of age to delay the onset of diabetes onset.
In the diabetes prevention/delayed onset study, mice were divided into five groups. […] Group 3 received 0.4 units insulin subcutaneously just prior to consuming food.
Female NOD mice (Jackson Laboratory) were allowed to access food ad lib overnight. A 12 hour light-dark cycle was maintained and mice were housed in accordance with the NIH Animal Care and Use guidelines. Food was removed for eight hours during the day and the fasting blood glucose was tested daily at the end of the eight hour fast.
The control group received vegetable oil to the fur without anything else. […] The insulin only group was given 0.4 units insulin (SQ) just before feeding.
Diabetes was defined as a fasting blood glucose ≧200 mg/dl on three consecutive days. The average of the fasting blood glucose over the three days was included in the calculation of the average for each group in the prevention data (see Table 1 and FIG. 1).

On to `NCCCC[C@H](N)C(=O)O` [lysine, reference compound], for which the insulin requirements in experiment [1] is reported as 0.030-0.047 units/day.

Take “Insulin: exogenous insulin given subcutaneously, 0.4 units just prior to consuming food [reference compound]”: the “average weight / lean body mass” value in experiment [2] is “increased body mass throughout the study”. Besides, the “Average Fasting Blood Glucose” value with female NOD mice (13 weeks of age, treatment just before feeding (30 mg/kg GABA PO and/or 0.4 U insulin SQ)) is 82 mg/dL; in the experiment with female NOD mice (15 weeks of age, treatment just before feeding) it was 114 mg/dL; in the experiment with female NOD mice (17 weeks of age, treatment just before feeding), 162 mg/dL; with female NOD mice (19 weeks of age, treatment just before feeding), 134 mg/dL; in the experiment on female NOD mice (21 weeks of age, treatment just before feeding), 150 mg/dL; in the experiment with female NOD mice (22 weeks of age, treatment just before feeding) it was 188 mg/dL. Further, the “Average Fasting Blood Glucose” value is 195 mg/dL in the experiment with female NOD mice (24 weeks of age, treatment just before feeding) and 260 mg/dL in the experiment with female NOD mice (26 weeks of age, treatment just before feeding).
